Measurements as given in US20040156869A1, “2-substituted quinazolin-4-ylamine analogues” (Neurogen Corporation, priority 2002, published 2004).

Each molecule was assayed against human capsaicin receptor (VR1) (Homo sapiens, UniProt Q8NER1) (assay: Capsaicin receptor binding assay ([3H]RTX competition, VR1-transfected HEK293 membranes)). Details: not given.
Sequence of human capsaicin receptor (VR1) (Q8NER1 whole entry): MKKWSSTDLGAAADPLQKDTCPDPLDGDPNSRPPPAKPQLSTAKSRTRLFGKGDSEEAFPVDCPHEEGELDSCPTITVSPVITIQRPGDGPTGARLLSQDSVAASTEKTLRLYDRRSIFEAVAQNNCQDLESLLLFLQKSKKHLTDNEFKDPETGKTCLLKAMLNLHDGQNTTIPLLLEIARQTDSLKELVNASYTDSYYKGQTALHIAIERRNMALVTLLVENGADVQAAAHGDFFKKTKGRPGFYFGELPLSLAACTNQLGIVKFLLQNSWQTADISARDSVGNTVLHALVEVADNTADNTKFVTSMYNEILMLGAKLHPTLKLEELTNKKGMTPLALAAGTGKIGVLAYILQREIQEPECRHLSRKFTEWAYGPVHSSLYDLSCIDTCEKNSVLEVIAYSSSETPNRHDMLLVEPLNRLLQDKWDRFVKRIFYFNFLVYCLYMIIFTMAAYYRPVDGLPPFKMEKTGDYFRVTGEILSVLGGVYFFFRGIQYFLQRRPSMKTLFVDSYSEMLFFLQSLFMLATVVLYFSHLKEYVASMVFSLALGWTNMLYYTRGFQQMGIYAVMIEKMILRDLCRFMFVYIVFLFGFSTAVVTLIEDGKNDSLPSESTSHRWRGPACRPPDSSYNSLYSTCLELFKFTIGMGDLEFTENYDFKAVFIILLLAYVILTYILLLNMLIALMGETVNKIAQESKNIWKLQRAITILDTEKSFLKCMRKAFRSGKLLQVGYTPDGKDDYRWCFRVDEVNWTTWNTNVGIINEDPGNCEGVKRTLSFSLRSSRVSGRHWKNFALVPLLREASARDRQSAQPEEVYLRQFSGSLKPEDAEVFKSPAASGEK

Structure (SMILES)	Ki
C[C@@H]1CN(Cc2nc(Nc3ccc(S(=O)(=O)N4CCOCC4)cc3)c3ncc(-c4ncccc4Cl)cc3n2)C[C@H](C)O1 [Compound 720, [7-(3-Chloro-pyridin-2-yl)-2-(2,6-dimethyl-morpholin-4-ylmethyl)-pyrido[3,2-d]pyrimidin-4-yl]-[4-(morpholine-4-sulfonyl)-phenyl]-amine (cis)]	< 1 µM
CCCN(CC)Cc1nc(Nc2ccc(S(=O)(=O)N3CCOCC3)cc2)c2ccc(-c3ncccc3C(F)(F)F)cc2n1 [Compound 724, [2-[(Ethyl-propyl-amino)-methyl]-7-(3-trifluoromethyl-pyridin-2-yl)-quinazolin-4-yl]-[4-(morpholine-4-sulfonyl)-phenyl]-amine]	< 1 µM
Cc1cccnc1-c1ccc2c(Nc3ccc(C(F)(F)F)cc3)nc(C3CN(C(=O)OC(C)(C)C)C3)nc2n1 [Compound 727, 3-[7-(3-Methyl-pyridin-2-yl)-4-(4-trifluoromethyl-phenylamino)-pyrido[2,3-d]pyrimidin-2-yl]-azetidine-1-carboxylic acid tert-butyl ester]	< 1 µM
O=C(O)C1CCN(Cc2nc(Nc3ccc(C(F)(F)F)cc3)c3ccc(-c4ncccc4C(F)(F)F)cc3n2)CC1 [Compound 728, 1-[4-(4-Trifluoromethyl-phenylamino)-7-(3-trifluoromethyl-pyridin-2-yl)-quinazolin-2-ylmethyl]-piperidine-4-carboxylic acid]	< 1 µM
O=C(O)C1CCCN(Cc2nc(Nc3ccc(C(F)(F)F)cc3)c3ccc(-c4ncccc4C(F)(F)F)cc3n2)C1 (centres unmarked) [Compound 729, 1-[4-(4-Trifluoromethyl-phenylamino)-7-(3-trifluoromethyl-pyridin-2-yl)-quinazolin-2-ylmethyl]-piperidine-3-carboxylic acid]	< 1 µM
O=C(O)[C@@H]1CCCN1Cc1nc(Nc2ccc(C(F)(F)F)cc2)c2ccc(-c3ncccc3C(F)(F)F)cc2n1 [Compound 730, (S)-1-[4-(4-Trifluoromethyl-phenylamino)-7-(3-trifluoromethyl-pyridin-2-yl)-quinazolin-2-ylmethyl]-pyrrolidine-2-carboxylic acid]	< 1 µM
Cc1cccnc1-c1ccc2c(Nc3ccc(C(F)(F)F)cc3)nc(C3CNC3)nc2n1 [Compound 735, [2-Azetidin-3-yl-7-(3-methyl-pyridin-2-yl)-pyrido[2,3-d]pyrimidin-4-yl]-(4-trifluoromethyl-phenyl)-amine]	< 1 µM
O=C(O)C1CCCCN1Cc1nc(Nc2ccc(C(F)(F)F)cc2)c2ccc(-c3ncccc3C(F)(F)F)cc2n1 (centres unmarked) [Compound 737, 1-[4-(4-Trifluoromethyl-phenylamino)-7-(3-trifluoromethyl-pyridin-2-yl)-quinazolin-2-ylmethyl]-piperidine-2-carboxylic acid]	< 1 µM
Cc1cccnc1-c1ccc2c(Nc3ccc(C(F)(F)F)cc3)nc(CN3C[C@@H](C)O[C@@H](C)C3)nc2n1 [Compound 738, [2-(2,6-Dimethyl-morpholin-4-ylmethyl)-7-(3-methyl-pyridin-2-yl)-pyrido[2,3-d]pyrimidin-4-yl]-(4-trifluoromethyl-phenyl)-amine (cis)]	< 1 µM
CC1(C)CN(Cc2nc(Nc3ccc(C(F)(F)F)cc3)c3ccc(-c4ncccc4C(F)(F)F)cc3n2)CCO1 [Compound 739, [2-(2,2-Dimethyl-morpholin-4-ylmethyl)-7-(3-trifluoromethyl-pyridin-2-yl)-quinazolin-4-yl]-(4-trifluoromethyl-phenyl)-amine]	< 1 µM
CC1(C)CN(Cc2nc(Nc3ccc(C(F)(F)F)cc3)c3ccc(-c4ncccc4Cl)cc3n2)CCO1 [Compound 740, [7-(3-Chloro-pyridin-2-yl)-2-(2,2-dimethyl-morpholin-4-ylmethyl)-quinazolin-4-yl]-(4-trifluoromethyl-phenyl)-amine]	< 1 µM
CC1(C)CN(Cc2nc(Nc3ccc(C4CC4)cc3)c3ccc(-c4ncccc4C(F)(F)F)cc3n2)CCO1 [Compound 741, (4-Cyclopropyl-phenyl)-[2-(2,2-dimethyl-morpholin-4-ylmethyl)-7-(3-trifluoromethyl-pyridin-2-yl)-quinazolin-4-yl]-amine]	< 1 µM
CC1(C)CN(Cc2nc(Nc3ccc(C(F)(F)F)cc3)c3ncc(-c4ncccc4C(F)(F)F)cc3n2)CCO1 [Compound 742, [2-(2,2-Dimethyl-morpholin-4-ylmethyl)-7-(3-trifluoromethyl-pyridin-2-yl)-pyrido[3,2-d]pyrimidin-4-yl]-(4-trifluoromethyl-phenyl)-amine]	< 1 µM
COCCN(CCOC)Cc1nc(Nc2ccc(C(F)(F)F)cc2)c2ccc(-c3ncccc3C)nc2n1 [Compound 743, [2-{[Bis-(2-methoxy-ethyl)-amino]-methyl}-7-(3-methyl-pyridin-2-yl)-pyrido[2,3-d]pyrimidin-4-yl]-(4-trifluoromethyl-phenyl)-amine]	< 1 µM

Now from value to molecule:

Ki	Structure (SMILES)
< 1 µM	Cc1cccnc1-c1ccc2c(Nc3ccc(C(C)C)cc3)nc(CN(C)C)nc2c1 [Compound 711, [2-Dimethylaminomethyl-7-(3-methyl-pyridin-2-yl)-quinazolin-4-yl]-(4-isopropyl-phenyl)-amine]
< 1 µM	Cc1cccnc1-c1ccc2c(Nc3ccc(C(C)C)cc3)nc(CN3CCOCC3)nc2c1 [Compound 712, (4-Isopropyl-phenyl)-[7-(3-methyl-pyridin-2-yl)-2-morpholin-4-ylmethyl-quinazolin-4-yl]-amine]
< 1 µM	Cc1cccnc1-c1ccc2c(Nc3ccc(C(C)C)cc3)nc(CN3CCSCC3)nc2c1 [Compound 713, (4-Isopropyl-phenyl)-[7-(3-methyl-pyridin-2-yl)-2-thiomorpholin-4-ylmethyl-quinazolin-4-yl]-amine]
< 1 µM	Cc1cccnc1-c1ccc2c(Nc3ccc(C(C)C)cc3)nc(CN3CCCC(C)(C)C3)nc2c1 [Compound 714, [2-(3,3-Dimethyl-piperidin-1-ylmethyl)-7-(3-methyl-pyridin-2-yl)-quinazolin-4-yl]-(4-isopropyl-phenyl)-amine]
< 1 µM	CCCN(CC)Cc1nc(Nc2ccc(C(C)C)cc2)c2ccc(-c3ncccc3C)cc2n1 [Compound 715, [2-[(Ethyl-propyl-amino)-methyl]-7-(3-methyl-pyridin-2-yl)-quinazolin-4-yl]-(4-isopropyl-phenyl)-amine]
< 1 µM	CCCN(C)Cc1nc(Nc2ccc(C(C)C)cc2)c2ccc(-c3ncccc3C)cc2n1 [Compound 716, (4-Isopropyl-phenyl)-[2-[(methyl-propyl-amino)-methyl]-7-(3-methyl-pyridin-2-yl)-quinazolin-4-yl]-amine]
< 1 µM	CCN(Cc1nc(Nc2ccc(C(C)C)cc2)c2ccc(-c3ncccc3C)cc2n1)C(C)C [Compound 717, [2-[(Ethyl-isopropyl-amino)-methyl]-7-(3-methyl-pyridin-2-yl)-quinazolin-4-yl]-(4-isopropyl-phenyl)-amine]
< 1 µM	Cc1cccnc1-c1ccc2c(Nc3ccc(C(C)C)cc3)nc(CN(C)C(C)C)nc2c1 [Compound 718, [2-[(Isopropyl-methyl-amino)-methyl]-7-(3-methyl-pyridin-2-yl)-quinazolin-4-yl]-(4-isopropyl-phenyl)-amine]
< 1 µM	COCCN(CCOC)Cc1nc(Nc2ccc(C(C)C)cc2)c2ccc(-c3ncccc3C)cc2n1 [Compound 719, [2-{[Bis-(2-methoxy-ethyl)-amino]-methyl}-7-(3-methyl-pyridin-2-yl)-quinazolin-4-yl]-(4-isopropyl-phenyl)-amine]
< 1 µM	CN(C)Cc1nc(Nc2ccc(S(=O)(=O)N3CCOCC3)cc2)c2ccc(-c3ncccc3C(F)(F)F)cc2n1 [Compound 721, [2-Dimethylaminomethyl-7-(3-trifluoromethyl-pyridin-2-yl)-quinazolin-4-yl]-[4-(morpholine-4-sulfonyl)-phenyl]-amine]
< 1 µM	CC(C)N(C)Cc1nc(Nc2ccc(S(=O)(=O)N3CCOCC3)cc2)c2ccc(-c3ncccc3C(F)(F)F)cc2n1 [Compound 723, [2-[(Isopropyl-methyl-amino)-methyl]-7-(3-trifluoromethyl-pyridin-2-yl)-quinazolin-4-yl]-[4-(morpholine-4-sulfonyl)-phenyl]-amine]
< 1 µM	CCOCN(COCC)Cc1nc(Nc2ccc(C(F)(F)F)cc2)c2ccc(-c3ncccc3C)cc2n1 [Compound 725, [2-[(Bis-ethoxymethyl-amino)-methyl]-7-(3-methyl-pyridin-2-yl)-quinazolin-4-yl]-(4-trifluoromethyl-phenyl)-amine]
< 1 µM	CCCN(CCC)Cc1nc(Nc2ccc(C(F)(F)F)cc2)c2ccc(-c3ncccc3C)cc2n1 [Compound 726, [2-Dipropylaminomethyl-7-(3-methyl-pyridin-2-yl)-quinazolin-4-yl]-(4-trifluoromethyl-phenyl)-amine]
< 1 µM	Cc1cccnc1-c1ccc2c(Nc3ccc(C(F)(F)F)cc3)nc(CN3CCCC(C)(C)C3)nc2c1 [Compound 731, [2-(3,3-Dimethyl-piperidin-1-ylmethyl)-7-(3-methyl-pyridin-2-yl)-quinazolin-4-yl]-(4-trifluoromethyl-phenyl)-amine]
< 1 µM	Cc1cccnc1-c1ccc2c(Nc3ccc(C(F)(F)F)cc3)nc(CN3CC[C@@H](O)C3)nc2c1 [Compound 732, (R)-1-[7-(3-Methyl-pyridin-2-yl)-4-(4-trifluoromethyl-phenylamino)-quinazolin-2-ylmethyl]-pyrrolidin-3-ol]
< 1 µM	Cc1cccnc1-c1ccc2c(Nc3ccc(C(F)(F)F)cc3)nc(CN3CC[C@@H](CO)C3)nc2c1 [Compound 733, (R)-{1-[7-(3-Methyl-pyridin-2-yl)-4-(4-trifluoromethyl-phenylamino)-quinazolin-ylmethyl]-pyrrolidin-3-yl}-methanol]
< 1 µM	Cc1cccnc1-c1ccc2c(Nc3ccc(C(F)(F)F)cc3)nc(CN3CC[C@H](CO)C3)nc2c1 [Compound 734, (S)-{1-[7-(3-Methyl-pyridin-2-yl)-4-(4-trifluoromethyl-phenylamino)-quinazolin-2-ylmethyl]-pyrrolidin-3-yl}-methanol]

Same assay, conditions: Table III; * = Ki 1 micromolar or less

Ki	Structure (SMILES)
< 1 µM	CCOC(=O)C1CCN(CCc2nc(Nc3ccc(C(F)(F)F)cc3)c3ccc(-c4ncccc4C(F)(F)F)cc3n2)CC1 [Compound 736, 1-{2-[4-(4-Trifluoromethyl-phenylamino)-7-(3-trifluoromethyl-pyridin-2-yl)-quinazolin-2-yl]-ethyl}-piperidine-4-carboxylic acid ethyl ester]
